The target in experiment [1] is T1, Estrogen receptor beta (Homo sapiens, UniProt Q92731).
Description: (§1) Inhibition of binding of 17 beta-estradiol to human Estrogen receptor beta
For experiment [2], the target named is T1, Estrogen receptor beta. This is another data set of the same source.
Description: as §1
For experiment [3], the target named is T2, Estrogen receptor (Homo sapiens, UniProt P03372).
T2 sequence (P03372 whole entry): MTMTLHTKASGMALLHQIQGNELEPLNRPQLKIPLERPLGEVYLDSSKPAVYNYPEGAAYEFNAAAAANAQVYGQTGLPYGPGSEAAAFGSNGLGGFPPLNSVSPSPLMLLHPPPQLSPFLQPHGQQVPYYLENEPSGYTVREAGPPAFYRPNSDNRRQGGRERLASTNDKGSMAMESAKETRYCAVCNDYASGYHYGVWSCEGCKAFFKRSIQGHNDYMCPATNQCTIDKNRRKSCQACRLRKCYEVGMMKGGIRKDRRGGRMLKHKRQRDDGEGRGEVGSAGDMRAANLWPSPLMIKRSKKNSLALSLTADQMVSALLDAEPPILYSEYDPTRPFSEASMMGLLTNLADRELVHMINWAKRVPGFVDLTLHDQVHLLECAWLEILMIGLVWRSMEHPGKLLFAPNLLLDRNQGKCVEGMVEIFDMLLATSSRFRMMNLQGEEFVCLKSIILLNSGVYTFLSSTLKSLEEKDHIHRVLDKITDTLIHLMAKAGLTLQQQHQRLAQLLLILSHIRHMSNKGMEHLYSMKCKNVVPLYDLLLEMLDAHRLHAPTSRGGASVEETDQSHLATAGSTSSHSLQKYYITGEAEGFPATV
Description: (§2) Inhibition of binding of 17 beta-estradiol to human Estrogen receptor alpha

The target in experiment [4] is T2, Estrogen receptor. The source holds these as a separate data set.
Description: as §2

This is an account of results in ChEMBL document CHEMBL1134138, “Phytoestrogens from the roots of Polygonum cuspidatum (Polygonaceae): structure-requirement of hydroxyanthraquinones for estrogenic activity” (Bioorg Med Chem Lett, 2001).

T1 sequence (Q92731 whole entry): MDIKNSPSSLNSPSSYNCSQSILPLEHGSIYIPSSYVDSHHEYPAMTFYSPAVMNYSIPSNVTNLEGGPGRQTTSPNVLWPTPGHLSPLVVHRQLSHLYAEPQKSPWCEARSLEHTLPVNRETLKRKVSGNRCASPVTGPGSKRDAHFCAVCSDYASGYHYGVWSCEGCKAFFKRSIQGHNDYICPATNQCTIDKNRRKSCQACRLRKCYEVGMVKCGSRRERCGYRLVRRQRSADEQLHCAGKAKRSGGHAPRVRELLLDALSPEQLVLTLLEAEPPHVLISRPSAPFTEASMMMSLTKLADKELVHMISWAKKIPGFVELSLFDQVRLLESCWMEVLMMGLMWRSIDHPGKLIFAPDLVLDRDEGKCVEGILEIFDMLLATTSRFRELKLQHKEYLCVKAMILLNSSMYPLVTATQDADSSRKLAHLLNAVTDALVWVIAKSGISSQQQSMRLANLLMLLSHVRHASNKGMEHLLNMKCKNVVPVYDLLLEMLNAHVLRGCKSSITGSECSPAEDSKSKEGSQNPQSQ

A word on the IC50: it is the concentration at which inhibition is half-maximal. A high value points to weaker potency. By Ki is commonly meant the dissociation constant of the complex between target and ligand, obtained from inhibition or displacement. Read a high Ki as weaker binding. The molecule `Cc1cc(O)c2c(c1)C(=O)c1cc(O)cc(O)c1C2=O` [EMODIN] yielded a half-inhibitory concentration (IC50) against Estrogen receptor beta [1] of 5.2 µM. Moreover, the Ki at Estrogen receptor beta [2] worked out at 1500 nM.
In the case of `O=C1c2ccc(O)cc2C(=O)c2ccc(O)cc21`, the IC50 turned out to be 2.4 µM against Estrogen receptor beta [1] and 1.1 µM on Estrogen receptor [3]. Further, the Ki at Estrogen receptor beta [2] came to 690 nM; at Estrogen receptor [4], 0.31 µM.
In the case of `Cc1cc(O)c2c(c1)C(=O)c1cc(O)cc(O[C@@H]3O[C@H](CO)[C@@H](O)[C@H](O)[C@H]3O)c1C2=O` [EMODIN 8-O-BETA-D-GLUCOPYRANOSIDE], the values for the IC50 against Estrogen receptor beta [1] and at Estrogen receptor [3] were 62 µM and 20 µM, respectively. Further, the Ki is 18000 nM at Estrogen receptor beta [2] and 5.7 µM at Estrogen receptor [4].
